The supplement of paper PMC12317010
Structures can show the parent of a compound that is named as a salt.

Assay: collision cross section in nitrogen (drift tube, single-field); higher = larger gas-phase ion size
[1] = ion type: [M+H], ion source: APCI, ion mode: Positive
[2] = ion type: [M+H], ion source: ESI, ion mode: Positive
[3] = ion type: [M+Na], ion source: ESI, ion mode: Positive
[4] = ion type: [M-H], ion source: ESI, ion mode: Negative
[5] = ion type: [M+], ion source: APCI, ion mode: Positive
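Further: chemical standards at 10 µM analysed by drift tube IMS-QTOF MS in about 3.95 torr nitrogen, mean of duplicate injections differing ≤1%, mass error below 10 ppm.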

SMILES | collision cross section in nitrogen [1] | collision cross section in nitrogen [2] | collision cross section in nitrogen [3] | collision cross section in nitrogen [4] | collision cross section in nitrogen [5]
CN(C)C(=O)Nc1ccccc1 [Fenuron] | 134 Å² | 134.4 Å² | 144.7 Å² | 137 Å² | –
CN(C)C(=O)Nc1ccc(Cl)cc1 [Monuron] | 142.7 Å² | 143 Å² | – | 142.4 Å² | –
Clc1ccc2c(c1)C(N1CCNCC1)=Nc1ccccc1O2 [Amoxapine] | 172.4 Å² | 172.6 Å² | – | – | –
CCOc1ccc(NC(C)=O)cc1 [Phenacetin] | 141.4 Å² | 141.5 Å² | – | – | –
CC1COCc2cc3c(cc21)C(C)(C)C(C)C3(C)C (stereo not given) | – | – | – | – | 163.2 Å²
CCSC(C)CC1CC(=O)C(C(CC)=NOC/C=C/Cl)=C(O)C1 (stereo not given) [Clethodim] | 187.7 Å² | 187.7 Å² | 184.9 Å² | 184.6 Å² | –
O=c1ccc2ccc(O)cc2o1 [Umbelliferone] | – | – | – | 127.4 Å² | –
CC(C)(C)c1cc(C(C)(C)C)c(O)c(C(C)(C)C)c1 [2,4,6-Tris(tert-butyl)phenol] | – | – | – | 173.2 Å² | –
Oc1ccc2cc(SSc3ccc4cc(O)ccc4c3)ccc2c1 [6-Hydroxy-2-naphthyl disulfide] | – | – | – | 185.8 Å² | –
CCCCCCCCOCCCN [3-(Octyloxy)propan-1-amine] | 156.9 Å² | 156.2 Å² | – | – | –
O=C(O)CCCCCCCC(=O)O [Nonanedioic acid] | – | – | – | 140.7 Å² | –
CCOc1cccc(-n2cc(C(=O)N3CCN(c4cc(C(=O)O)c5ccccc5c4)CC3)nc2-c2ccc(C)cc2)c1 | 228.4 Å² | 228.8 Å² | 233.2 Å² | 232.5 Å² | –
FC(F)C(F)(F)OCC(Cn1cncn1)c1ccc(Cl)cc1Cl (stereo not given) [Tetraconazole] | 177.6 Å² | 176.6 Å² | – | – | –
CC(=O)Nc1ccc(CC(=O)O)cc1 [Actarit] | – | 143.7 Å² | 143.5 Å² | – | –
COC(=O)CCCCCCCC(=O)OC [Dimethyl nonanedioate] | – | – | 155.6 Å² | – | –
Nc1ccc(Cl)c([N+](=O)[O-])c1 [4-Chloro-3-nitroaniline] | – | – | – | 126.1 Å² | –
CCn1nc(Cc2ccccc2)cc1C1CCN(C[C@H]2C[C@H](N(C)[C@@H](C(=O)O)C(C)C)C[C@@H]2c2cccc(F)c2)CC1 [MK-578] | 243.1 Å² | 243.4 Å² | 241.9 Å² | 247.7 Å² | –
O=C1NC(=O)[C@@H]2CC=CC[C@H]12 [cis-1,2,3,6-Tetrahydrophthalimide] | – | – | – | 133 Å² | –
Cc1cc(SC2=C(O)C[C@@](CCc3ccc(N)cc3)(C(C)C)OC2=O)c(C(C)(C)C)cc1CO [CI-1029] | – | – | 210.5 Å² | 214.2 Å² | –
O=c1oc2ccccc2c(O)c1C(CC(O)c1ccc(-c2ccc(Br)cc2)cc1)c1ccccc1 (stereo not given) [Bromadiolone] | – | – | 239.5 Å² | 215.1 Å² | –
CN(C)C(=O)C1(N2CCCCC2)CCN(CC[C@@]2(c3ccc(Cl)c(Cl)c3)CN(C(=O)c3ccccc3)CCO2)CC1 | 244.9 Å² | 245.5 Å² | 241.3 Å² | – | –

SMILES | collision cross section in nitrogen [1] | collision cross section in nitrogen [2] | collision cross section in nitrogen [3] | collision cross section in nitrogen [4] | collision cross section in nitrogen [5]
C=C(C)CS(=O)(=O)O [Sodium 2-methylprop-2-ene-1-sulfonate] | – | – | – | 124.2 Å² | –
COCC(=O)N(c1c(C)cccc1C)N1CCOC1=O [Oxadixyl] | – | – | 167.1 Å² | – | –
CCOP(=S)(OCC)SCSP(=S)(OCC)OCC [Ethion] | – | – | 182.3 Å² | – | –
CCCCCCCCCCCCc1ccc(S(=O)(=O)O)cc1 [Dodecylbenzenesulfonic acid] | – | – | 167.4 Å² | 184.8 Å² | –
c1ccc(CNCc2ccccc2)cc1 [Dibenzylamine] | 150.8 Å² | 149.6 Å² | – | – | –
Nc1cccc(S(=O)(=O)c2cccc(N)c2)c1 [3,3'-Sulphonyldianiline] | – | – | 172.6 Å² | – | –
CCc1ccc(CCOc2ccc(CC3SC(=O)NC3=O)cc2)nc1 (stereo not given) [Pioglitazone hydrochloride] | 178.8 Å² | 178.9 Å² | 186.7 Å² | 176.4 Å² | –
Nc1ccc(Sc2ccc(N)cc2)cc1 [4,4'-Thiodianiline] | 164.9 Å² | 164.4 Å² | – | – | 148.1 Å²
CC(C)c1cccc(C(C)C)c1N [2,6-Diisopropylaniline] | 146.6 Å² | – | – | – | –
CC(CCc1ccccc1)NCC(O)c1ccc(O)c(C(N)=O)c1 (stereo not given) [Labetalol hydrochloride] | 175.7 Å² | 175.2 Å² | 176.8 Å² | – | –
C[C@]12C=CC(=O)C=C1CC[C@@H]1[C@@H]2C(=O)C[C@@]2(C)[C@H]1CC[C@]2(O)C(=O)CO [Prednisone] | 184.1 Å² | – | 192.2 Å² | – | –
Oc1ccccc1O [1,2-Benzenediol] | – | – | – | 116.1 Å² | –
Nc1cnn(-c2ccccc2)c(=O)c1Cl [Chloridazon] | 143.6 Å² | 144 Å² | 158 Å² | 143.7 Å² | –
C[C@]12C=CC(=O)C=C1CC[C@@H]1[C@@H]2[C@@H](O)C[C@@]2(C)[C@H]1CC[C@]2(O)C(=O)CO [Prednisolone] | 186.4 Å² | – | 210.8 Å² | – | –
CC(C)(C)CC(C)(C)c1ccc(O)cc1 [4-(1,1,3,3-Tetramethylbutyl)phenol] | – | – | – | 157.1 Å² | –
CN(C)CCCN1c2ccccc2CCc2ccccc21 [Imipramine hydrochloride] | 165.8 Å² | 166 Å² | 172.7 Å² | – | –
O=C(Oc1ccc(Br)cc1)N1CCN2CCC1CC2 [4-Bromophenyl 1,4-diazabicyclo(3.2.2)nonane-4-carboxylate] | 177.7 Å² | 178.5 Å² | – | – | –
O=c1[nH]c2ccc(Cl)cc2o1 [6-Chloro-2,3-dihydrobenzoxazol-2-one] | – | – | – | 125.6 Å² | –
CCCN(CCC)c1c([N+](=O)[O-])cc(C(F)(F)F)cc1[N+](=O)[O-] [Trifluralin] | – | – | – | 169.2 Å² | –
CCCCCCCC(=O)OCC(COC(=O)CCCCCCC)OC(=O)CCCCCCC [Tricaprylin] | – | – | 231.4 Å² | – | –
O=C(O)c1cc(=O)c2c(OCC(O)COc3cccc4oc(C(=O)O)cc(=O)c34)cccc2o1 [Cromolyn sodium] | – | 208.8 Å² | 211.8 Å² | 186 Å² | –

SMILES | collision cross section in nitrogen [1] | collision cross section in nitrogen [2] | collision cross section in nitrogen [3] | collision cross section in nitrogen [4] | collision cross section in nitrogen [5]
CC(C)c1ccc(O)cc1 [4-Isopropylphenol] | – | – | – | 134.1 Å² | –
Nc1ccc(Cc2ccc(N)cc2)cc1 [4,4'-Diaminobiphenyl methane] | 163.3 Å² | 163.1 Å² | – | – | –
CCCC/C=C\CCCCCCCCCC=O [(Z)-11-Hexadecenal] | – | – | – | 163.6 Å² | –
CC(C)C(=O)OCC(C)(C)C(O)C(C)C (stereo not given) [Texanol] | – | – | 161.4 Å² | – | –
CCc1nn(C)c(C(=O)NCc2ccc(C(C)(C)C)cc2)c1Cl [Tebufenpyrad] | 193.9 Å² | 193 Å² | 193.2 Å² | 194 Å² | –
CCOC(=O)C(SP(=S)(OC)OC)c1ccccc1 (stereo not given) [Phenthoate] | – | – | 175.1 Å² | – | –
CCN(CC)CCOC(=O)c1ccc(N)cc1 [Procaine hydrochloride] | 155.9 Å² | 157.1 Å² | – | – | –
c1ccc2[nH]cnc2c1 [Benzimidazole] | 121 Å² | 121.8 Å² | – | – | –
Cc1cc(CCN2CCN(c3nsc4ccccc34)CC2)cc2c1NC(=O)CC2(C)C | 202.2 Å² | 202.4 Å² | 205.3 Å² | 209.3 Å² | –
O=C1OC2(c3ccccc31)c1cc(I)c(O)c(I)c1Oc1c2cc(I)c(O)c1I [C.I. Solvent Red 140] | 211.8 Å² | 211.3 Å² | – | 218.2 Å² | –
CC(C)=CC1C(C(=O)OCc2coc(Cc3ccccc3)c2)C1(C)C (stereo not given) [Resmethrin] | – | – | 177.8 Å² | – | –
CNC(=O)Oc1cccc(N=CN(C)C)c1 [Formetanate hydrochloride] | – | 156 Å² | – | – | –
Oc1ccc(Cl)c(O)c1 [4-Chlororesorcinol] | – | – | – | 122.5 Å² | –
CCc1cc(Cc2cc(CC)cc(C(C)(C)C)c2O)c(O)c(C(C)(C)C)c1 [2,2'-Methylenebis(ethyl-6-tert-butylphenol)] | – | – | – | 203.6 Å² | –
CN(C)c1ccc(C(=O)c2ccc(N(C)C)cc2)cc1 [Bis(4-(dimethylamino)phenyl)methanone] | 166.8 Å² | 166.5 Å² | 175.8 Å² | – | –
NNc1nc(-c2ccc(N)cc2)cs1 [2-Hydrazino-4-(4-aminophenyl) thiazole] | – | 146.2 Å² | – | – | –
O=C(Nc1ccc([N+](=O)[O-])cc1Cl)c1cc(Cl)ccc1O [5-Chloro-N-(2-chloro-4-nitrophenyl)-2-hydroxybenzamide] | – | – | – | 164.6 Å² | –
O=C(O)c1cccc(C(=O)O)c1 [1,3-Benzenedicarboxylic acid] | – | – | – | 133.2 Å² | –
O=P(c1ccccc1)(c1ccccc1)c1ccccc1 [Triphenylphosphine oxide] | 163 Å² | 162.9 Å² | 182.6 Å² | – | –
CCCCCCCCCCCCCCCC(=O)OC[C@H](O)[C@H]1OC(=O)C(O)=C1O [Ascorbyl palmitate] | – | – | – | 202.4 Å² | –
Nc1ccc([N+](=O)[O-])cc1O [2-Amino-5-nitrophenol] | – | – | – | 125.3 Å² | –
